Here are results for 14 molecules from PubChem BioAssay AID328 (DTP/NCI, 2004).

“And” between values parts separate entries of the source, which are not always exact repeats. Equal entries are not always repeated. Inconclusive results and toxic doses are left out.

This test deals with BDF1 mice, P388 leukemia ip, median survival T/C. Description: NCI In Vivo Anticancer Drug Screen. Data for tumor model P388 Leukemia (intraperitoneal) in B6D2F1 (BDF1) mice. The conditions noted are these: endpoint: median survival time, higher = longer survival. In short, it runs like this: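 Transplantable tumour in mice; compound vs vehicle dosing; survival scored; ratio of treated to control reported.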

[1] abbreviates: dose: 6.25 mg/kg/injection, schedule: Q04DX003 (ip), vehicle: saline.
The mark [2] stands for this setting: dose: 12.5 mg/kg/injection, schedule: Q04DX003 (ip), vehicle: saline.
Where [3] appears, read: dose: 50.0 mg/kg/injection, schedule: Q01DX009 (ip), vehicle: saline with Tween-80.
Setting [4] is: dose: 100.0 mg/kg/injection, schedule: Q01DX009 (ip), vehicle: saline with Tween-80.
[5] abbreviates: dose: 100.0 mg/kg/injection, schedule: Q04DX003 (ip), vehicle: saline with Tween-80.
[6] abbreviates: dose: 200.0 mg/kg/injection, schedule: Q01DX009 (ip), vehicle: saline with Tween-80.
Setting [7] is: dose: 200.0 mg/kg/injection, schedule: Q04DX003 (ip), vehicle: saline with Tween-80.
[8] abbreviates: dose: 100.0 mg/kg/injection, schedule: Q04DX003 (ip), vehicle: saline.
The mark [9] stands for this setting: dose: 200.0 mg/kg/injection, schedule: Q04DX003 (ip), vehicle: saline.
[10] abbreviates: dose: 400.0 mg/kg/injection, schedule: Q04DX003 (ip), vehicle: saline.

`Cc1cccc(S(=O)(=O)F)c1`: the T/C is, setting by setting: (dose: 37.5 mg/kg/injection, schedule: Q01DX009 (ip), vehicle: Klucel (hydroxypropylcellulose) (HPC)) 104 % of control; (dose: 75.0 mg/kg/injection, schedule: Q01DX009 (ip), vehicle: Klucel (hydroxypropylcellulose) (HPC)) 95 % of control; (dose: 150.0 mg/kg/injection, schedule: Q01DX009 (ip), vehicle: Klucel (hydroxypropylcellulose) (HPC)) 90 % of control.
As for `C=CCNCCN1CCN(CCCN2c3ccccc3Sc3ccc(C(F)(F)F)cc32)CC1`, the T/C by setting is: under setting [1], 108 % of control and 110 % of control; under setting [2], 87 % of control and 110 % of control; (dose: 25.0 mg/kg/injection, schedule: Q04DX003 (ip), vehicle: saline) 100 % of control and 118 % of control; (dose: 50.0 mg/kg/injection, schedule: Q04DX003 (ip), vehicle: saline) 116 % of control.
With `COc1cc(Cl)ccc1C`, the T/C is, setting by setting: under setting [3], 100 % of control; (dose: 50.0 mg/kg/injection, schedule: Q04DX003 (ip), vehicle: saline with Tween-80) 104 % of control; (dose: 88.0 mg/kg/injection, schedule: Q01DX009 (ip), vehicle: saline with Tween-80) 108 % of control and 114 % of control; under setting [4], 120 % of control; under setting [5], 113 % of control; (dose: 132.0 mg/kg/injection, schedule: Q01DX009 (ip), vehicle: saline with Tween-80) 108 % of control. In addition, the T/C by setting is: under setting [6], 120 % of control and 123 % of control; under setting [7], 118 % of control; (dose: 300.0 mg/kg/injection, schedule: Q01DX009 (ip), vehicle: saline with Tween-80) 123 % of control.
In the case of `c1ccc2c(c1)Sc1cnccc1N2CC1CO1` (stereo unspecified), the T/C is 104 % of control under setting [8], 90 % of control under setting [9] and 95 % of control under setting [10].
On to `CO[C@H]1C[C@H](O[C@H]2CC[C@]3(C=O)[C@H]4CC[C@]5(C)[C@@H](C6=CC(=O)OC6)CC[C@]5(O)[C@@H]4CC[C@]3(O)C2)O[C@H](C)[C@H]1O`, for which the T/C is 95 % of control (dose: 0.62 mg/kg/injection, schedule: Q01DX010 (ip), vehicle: steriod suspending solution); 90 % of control (dose: 1.25 mg/kg/injection, schedule: Q01DX010 (ip), vehicle: steriod suspending solution); 95 % of control (dose: 2.5 mg/kg/injection, schedule: Q01DX010 (ip), vehicle: steriod suspending solution); 90 % of control (dose: 5.0 mg/kg/injection, schedule: Q01DX010 (ip), vehicle: steriod suspending solution).
On to `CCNCc1cc(Nc2cc(C)nc(/N=C(\N)Nc3ccc(Cl)c(Cl)c3)n2)ccc1OC`, for which the T/C runs as follows: (dose: 6.25 mg/kg/injection, schedule: Q01DX009 (ip), vehicle: Klucel (hydroxypropylcellulose) (HPC)) 90 % of control; (dose: 8.75 mg/kg/injection, schedule: Q04DX003 (ip), vehicle: Klucel (hydroxypropylcellulose) (HPC)) 112 % of control; (dose: 12.5 mg/kg/injection, schedule: Q01DX009 (ip), vehicle: Klucel (hydroxypropylcellulose) (HPC)) 100 % of control; (dose: 17.5 mg/kg/injection, schedule: Q04DX003 (ip), vehicle: Klucel (hydroxypropylcellulose) (HPC)) 108 % of control; (dose: 25.0 mg/kg/injection, schedule: Q01DX009 (ip), vehicle: Klucel (hydroxypropylcellulose) (HPC)) 90 % of control; (dose: 33.0 mg/kg/injection, schedule: Q04DX003 (ip), vehicle: Klucel (hydroxypropylcellulose) (HPC)) 116 % of control. The T/C (dose: 35.0 mg/kg/injection, schedule: Q04DX003 (ip), vehicle: Klucel (hydroxypropylcellulose) (HPC)) is 108 % of control; the T/C (dose: 50.0 mg/kg/injection, schedule: Q04DX003 (ip), vehicle: Klucel (hydroxypropylcellulose) (HPC)) is 108 % of control; the T/C (dose: 75.0 mg/kg/injection, schedule: Q04DX003 (ip), vehicle: Klucel (hydroxypropylcellulose) (HPC)) is 108 % of control; the T/C (dose: 80.0 mg/kg/injection, schedule: Q04DX003 (ip), vehicle: Klucel (hydroxypropylcellulose) (HPC)) is 109 % of control.
On to `C=C1C(=O)OC2C=C(C)CC3C=C(CCC=C(C)CCC12)C(=O)O3` (stereo unspecified), for which the T/C is, setting by setting: (dose: 10.0 mg/kg/injection, schedule: Q01DX009 (ip), vehicle: saline) 88 % of control; (dose: 30.0 mg/kg/injection, schedule: Q01DX009 (ip), vehicle: saline) 105 % of control; (dose: 40.0 mg/kg/injection, schedule: Q01DX009 (ip), vehicle: saline) 94 % of control; (dose: 60.0 mg/kg/injection, schedule: Q01DX009 (ip), vehicle: saline) 120 % of control; (dose: 120.0 mg/kg/injection, schedule: Q01DX009 (ip), vehicle: saline) 112 % of control.
Take `CC1CCC[N-]C1.CC1CCC[N-]C1.CC1CCC[N-]C1.CC1CCC[N-]C1.[Cl][Rh][Cl]` (stereo unspecified): the T/C (dose: 3.0 mg/kg/injection, schedule: Q01DX009 (ip), vehicle: Klucel (hydroxypropylcellulose) (HPC)) is 162 % of control.
As to `O=[N+]([O-])c1ccc(N2CCN(c3ccccc3)CC2)c2c1no[n+]2[O-]`, the T/C is 108 % of control (dose: 75.0 mg/kg/injection, schedule: Q04DX003 (ip), vehicle: saline with Tween-80) and 111 % of control (dose: 150.0 mg/kg/injection, schedule: Q04DX003 (ip), vehicle: saline with Tween-80).
Turning to `O=C(Cn1cc(F)c(=O)[nH]c1=O)c1ccc(Cl)s1`, the T/C under setting [3] is 105 % of control; the T/C under setting [4] was 96 % of control; the T/C under setting [5] was 94 % of control; the T/C under setting [6] was 103 % of control; the T/C under setting [7] was 101 % of control; the T/C (dose: 400.0 mg/kg/injection, schedule: Q01DX009 (ip), vehicle: saline with Tween-80) was 103 % of control. Also, the T/C (dose: 400.0 mg/kg/injection, schedule: Q04DX003 (ip), vehicle: saline with Tween-80) was 102 % of control.
In the case of `COc1ccc(C(=O)/C=N/O)cc1`, the T/C was 86 % of control (dose: 25.0 mg/kg/injection, schedule: Q01DX009 (ip), vehicle: saline with Tween-80); 100 % of control under setting [3]; 90 % of control under setting [4].
On to `N#[N+]c1ccc2c(S(=O)(=O)O)cccc2c1O`, for which the T/C by setting is: (dose: 100.0 mg/kg/injection, schedule: Q01DX009 (ip), vehicle: saline) 92 % of control; under setting [8], 100 % of control; (dose: 200.0 mg/kg/injection, schedule: Q01DX009 (ip), vehicle: saline) 103 % of control; under setting [9], 108 % of control; (dose: 400.0 mg/kg/injection, schedule: Q01DX009 (ip), vehicle: saline) 89 % of control; under setting [10], 95 % of control.
Regarding `O=C1C2C3CC4C2C(=O)C2C1C3C42` (stereo unspecified), the T/C is, setting by setting: under setting [8], 90 % of control; under setting [9], 102 % of control; under setting [10], 90 % of control.
With `COc1cc2ccc3c(c2cc1OC)C(=O)CNC3C` (stereo unspecified), the T/C is 104 % of control (dose: 3.13 mg/kg/injection, schedule: Q01DX009 (ip), vehicle: saline); 109 % of control (dose: 3.13 mg/kg/injection, schedule: Q04DX003 (ip), vehicle: saline); 100 % of control (dose: 6.25 mg/kg/injection, schedule: Q01DX009 (ip), vehicle: saline); 100 % of control under setting [1]; 100 % of control (dose: 12.5 mg/kg/injection, schedule: Q01DX009 (ip), vehicle: saline); 109 % of control under setting [2].
